Measured values: patent publication US20150005264A1, “PREDICTIVE BIOMARKER FOR HYPOXIA-ACTIVATED PRODRUG THERAPY” (THRESHOLD PHARMACEUTICALS, INC., priority 2012, published 2015)

Test system: melanoma
Assay: Clinical trial of TH-302 monotherapy in melanoma patients, response compared with serum CA-IX level
Assay type: in vivo, human
Settings: thirty melanoma patients, pre-dose serum CA-IX (ELISA) cut-offs 28.8, 77.1, 178.3 pg/mL, FIG. 1
Description: In one important embodiment, the HAP is TH-302. In a clinical trial of TH-302 in melanoma patients, CA-IX levels were measured in serum samples taken from patients prior to TH-302 administration. Measured levels varied widely, with the first quartile having levels of 28.8 pg/mL CA-IX or less, the median being 77.1 pg/mL CA-IX, and the 3rd quartile having 178.3 pg/mL or less.
The data set used to generate the graphs in FIG. 1 was used to generate the graph in FIG. 2, which uses the 2×Median value of 154.2 pg/mL as the cut-off for dividing patients into high and low CA-IX level groups. Using this value as the cut-off, one sees an even more dramatic example of the predictive value of CA-IX levels in determining whether a patient will respond to TH-302 or other HAP therapy.

Structure (SMILES): Cn1c(COP(=O)(NCCBr)NCCBr)cnc1[N+](=O)[O-] [TH-302, (2-bromoethyl)({[(2-bromoethyl)amino][(2-nitro-3-methylimidazol-4-yl)methoxy]phosphoryl})amine]
- progression-free survival (response to TH-302) versus serum CA-IX level: higher CA-IX levels correlated to a better response to TH-302
